The source made the active and inactive calls. No cut-off for these calls is given here. Where only a bound is given, the exact number is not on record here.

For experiment [1], the target named is T1, Galectin-1 (Homo sapiens, UniProt P09382). Description: Antagonist activity against human galectin 1 by fluorescence polarization assay.
The target in another experiment is T2, Galectin-8 (Homo sapiens, UniProt O00214).
T2 sequence (O00214 whole entry): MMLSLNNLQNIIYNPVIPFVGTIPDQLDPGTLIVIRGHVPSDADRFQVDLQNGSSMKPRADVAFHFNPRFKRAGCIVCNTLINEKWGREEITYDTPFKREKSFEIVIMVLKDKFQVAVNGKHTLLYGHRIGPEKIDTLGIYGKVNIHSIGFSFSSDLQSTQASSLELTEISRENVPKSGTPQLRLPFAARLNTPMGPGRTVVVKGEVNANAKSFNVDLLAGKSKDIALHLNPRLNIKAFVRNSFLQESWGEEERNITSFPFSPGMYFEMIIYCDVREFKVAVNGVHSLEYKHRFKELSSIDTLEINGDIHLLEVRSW
Description: Antagonist activity against human galectin 8 N-terminal domain by fluorescence polarization assay.

Another experiment addresses Galectin-3 (Homo sapiens, UniProt P17931). Description: Antagonist activity against human galectin 3 by fluorescence polarization assay.
The target of another experiment is Galectin-9 (Homo sapiens, UniProt O00182). The experiment is described as follows: Antagonist activity against human galectin 9 N-terminal domain by fluorescence polarization assay.
Sequence of Galectin-9 (O00182 whole entry, the tested form may be a part): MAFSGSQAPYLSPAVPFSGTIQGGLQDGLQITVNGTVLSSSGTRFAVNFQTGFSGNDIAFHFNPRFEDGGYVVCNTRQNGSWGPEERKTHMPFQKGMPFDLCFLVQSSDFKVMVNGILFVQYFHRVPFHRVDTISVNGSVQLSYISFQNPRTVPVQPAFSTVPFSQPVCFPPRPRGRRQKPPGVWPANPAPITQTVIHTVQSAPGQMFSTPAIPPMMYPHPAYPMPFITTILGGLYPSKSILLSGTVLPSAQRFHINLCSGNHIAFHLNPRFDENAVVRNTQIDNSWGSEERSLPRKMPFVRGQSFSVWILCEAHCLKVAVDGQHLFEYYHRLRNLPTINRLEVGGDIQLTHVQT
For the next experiment, the target named is Galectin-7 (Homo sapiens, UniProt P47929). Description: Antagonist activity against human galectin 7 by fluorescence polarization assay.
Sequence of Galectin-7 (P47929 whole entry): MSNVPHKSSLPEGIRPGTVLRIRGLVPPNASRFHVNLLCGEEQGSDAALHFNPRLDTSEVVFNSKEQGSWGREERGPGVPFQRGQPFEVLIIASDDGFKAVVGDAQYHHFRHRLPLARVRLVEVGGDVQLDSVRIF
Experiment [2] concerns the target T1, Galectin-1. To be noted: 10 mM.
Description: Antagonist activity against human galectin 1 at 10 mM by fluorescence polarization assay

Sequence of Galectin-3 (P17931 whole entry, the tested form may be a part): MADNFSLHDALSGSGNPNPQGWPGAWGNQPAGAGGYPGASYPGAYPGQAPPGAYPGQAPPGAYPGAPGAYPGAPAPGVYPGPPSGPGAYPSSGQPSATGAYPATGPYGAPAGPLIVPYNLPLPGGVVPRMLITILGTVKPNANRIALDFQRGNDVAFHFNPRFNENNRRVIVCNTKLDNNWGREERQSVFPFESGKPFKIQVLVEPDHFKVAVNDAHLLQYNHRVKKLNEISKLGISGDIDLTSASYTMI
T1 sequence (P09382 whole entry): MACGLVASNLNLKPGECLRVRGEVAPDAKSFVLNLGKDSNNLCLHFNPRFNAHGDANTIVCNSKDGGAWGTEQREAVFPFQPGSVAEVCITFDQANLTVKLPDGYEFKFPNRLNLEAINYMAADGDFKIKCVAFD

Take `CO[C@H]1O[C@H](CO)[C@H](O)[C@H](OCc2cc3ccccc3oc2=O)[C@H]1O`: the Kd on Galectin-1 [1] (read-out: Kd) came to 1900 µM; on Galectin-8, 180 µM; at Galectin-3 it was 78 µM; at Galectin-9 it was 180 µM; at Galectin-7 (read-out: Kd) it was 850 µM.

In the case of `Cc1ccc(S(=O)(=O)/N=c2\oc3ccccc3cc2CO[C@@H]2O[C@H](CO)[C@@H](O[C@@H]3O[C@H](CO)[C@H](O)[C@H](O)[C@H]3O)[C@H](O)[C@H]2O)cc1`, the Kd was 500 µM at Galectin-1 [1] (read-out: Kd); 140 µM on Galectin-8; 130 µM at Galectin-3; 80 µM on Galectin-9; “Not Active” on Galectin-7.

Turning to `Cc1ccc(S(=O)(=O)/N=c2\oc3ccccc3cc2CO[C@@H]2O[C@H](CO)[C@H](O)[C@H](O)[C@H]2O)cc1`, the Kd is 3600 µM at Galectin-1 [1] (read-out: Kd); 3900 µM on Galectin-8; 10000 µM on Galectin-3; 7100 µM at Galectin-9; “Not Active” at Galectin-7.

Turning to `CO[C@H]1O[C@H](CO)[C@H](O)[C@H](OCc2cc3ccccc3o/c2=N\S(=O)(=O)c2ccccc2)[C@H]1O`, the Kd on Galectin-1 [1] (read-out: Kd) was 650 µM; at Galectin-8, 390 µM; on Galectin-3, 81 µM; on Galectin-9, 76 µM; at Galectin-7 (read-out: Kd), 1100 µM.

On to `CO[C@H]1O[C@H](CO)[C@H](O)[C@H](OCc2cc3ccccc3o/c2=N\S(=O)(=O)c2ccc(C)cc2)[C@H]1O`, for which the dissociation constant (Kd) was 1700 µM on Galectin-1 [1] (read-out: Kd); 250 µM at Galectin-8; 120 µM at Galectin-3; 140 µM on Galectin-9; 1700 µM at Galectin-7 (read-out: Kd).

For the compound `CO[C@H]1O[C@H](CO)[C@H](O)[C@H](OCc2cc3ccccc3o/c2=N\S(=O)(=O)c2ccccc2)[C@H]1OC(C)=O`, the dissociation constant (Kd) at Galectin-1 [1] (read-out: Kd) was found to be 4500 µM; on Galectin-8 it was 270 µM; on Galectin-3, 130 µM; on Galectin-9, 45 µM; on Galectin-7 (read-out: Kd) it was 230 µM.

`CO[C@H]1O[C@H](CO)[C@H](O)[C@H](OCc2cc3ccccc3o/c2=N\S(=O)(=O)c2ccc(C)cc2)[C@H]1OC(C)=O`: the Kd at Galectin-1 [1] (read-out: Kd) stood at 5100 µM; on Galectin-8, 170 µM; at Galectin-3 it was 97 µM; on Galectin-9, 36 µM; at Galectin-7 (read-out: Kd), 180 µM.

Take `CS[C@@H]1O[C@H](CO)[C@H](O)[C@H](n2cc(C(=O)NCc3ccccc3)nn2)[C@H]1O`: the Kd entry at Galectin-1 [1] was “Not Active”; at Galectin-9, above 5000 µM.

For the compound `CO[C@H]1O[C@H](CO)[C@H](O)[C@H](O)[C@H]1O`, the inhibition result at Galectin-1 [2] was “inactive”. Also, the Kd was 2800 µM at Galectin-9 and 11000 µM on Galectin-7 (read-out: Kd).

`CO[C@@H]1O[C@H](CO)[C@@H](O[C@@H]2O[C@H](CO)[C@H](O)[C@H](O)[C@H]2O)[C@H](O)[C@H]1O`: the dissociation constant (Kd) came out at 190 µM at Galectin-1 [1] (read-out: Kd); 62 µM at Galectin-8; 220 µM at Galectin-3; 23 µM on Galectin-9; 110 µM at Galectin-7 (read-out: Kd).

In the case of `CS[C@@H]1O[C@H](CO)[C@H](O)[C@H](NC(=O)c2ccc(C)cc2)[C@H]1O`, the Kd on Galectin-1 [1] (read-out: Kd) was 980 µM; on Galectin-8, above 2000 µM; at Galectin-9, 1500 µM; at Galectin-7 (read-out: Kd), above 2000 µM.
